The text below walks through data of patent US20190290474A1, “DRUG RELEASE DEVICE AND USE” (JUROX PTY LTD, priority 2016, published 2019).

Each structure is given as a SMILES string. Bounds are passed on as bounds.

Series [1] is described as follows: Example 13: progesterone dissolution from cut devices in 250 mL acetone, HPLC/UV. Format: physicochemical. The following applies: individual device. The method, then:
The combined mass of each reagent bottle and solid contents was recorded (Mi) and each bottle was then charged with 250 mL of acetone. Reagent bottles were heated to 35° C. in a temperature controlled water bath and stirred using a submersible multipoint stirrer plate.
Reagent bottles were removed from the water bath at times 2, 4.5 and 47.5 hours after the commencement of stirring. All residual water from the temperature controlled water bath was removed from the outside of the container. The total mass of the dissolution vessel, drug product and drug product solution was then recorded (Mf) and the reagent bottles were left at ambient temperature. The initial mass (of components prior to solvent addition) was subtracted from the final mass to give the solvent mass at each time point.
The temperature of each solution of device extracts was recorded at 2.5, 5 and 48 hours after stirring commenced and a 2 mL aliquot of solution was sampled immediately following the temperature reading. The aliquot of extracts were diluted in 100 mL of 50:50 acetonitrile/water and a sample of the diluted solution was filtered into HPLC vials
The mass of solvent was converted to its corresponding volume using the literature density of acetone and equation below.
A progesterone dissolution profile and final content for each implant was be obtained using a HPLC/UV method for progesterone quantification in IVD and CIDR

For series [2] the following is noted: aqueous pH 7 buffer; cited from earlier work.

In the case of `CC(=O)[C@H]1CC[C@H]2[C@@H]3CCC4=CC(=O)CC[C@]4(C)[C@H]3CC[C@]12C` [Progesterone], the “Dissolution of progesterone, percentage of the dose concentration (1.38 g)” value in series [1] (2.5 Hours) amounted to 100.8%; in series [1] (5 Hours) it was 104.1%; in series [1] (48 Hours), 103.2%. The solubility of progesterone in series [2] is < 0.1 g/L.
